The structures appear in SMILES notation. The source made the active and inactive calls. No cut-off for these calls is given here.

As usually defined, the inhibition is the change of the read-out against control, counted positive when it falls. Usually IC50 stands for the concentration at which inhibition is half-maximal.

Data set [1] can be described thus: Inhibition of N-terminal (His)6/thioredoxin-tagged recombinant human BMAL1/CLOCK heterodimer expressed in Escherichia coli interaction with 5'-FAM-labeled Per2 E-box DNA (unknown origin) assessed as reduction in fluorescence intensity at 500 uM incubated for 40 mins by FP assay.
Data set [2] in a line: Inhibition of N-terminal (His)6/thioredoxin-tagged recombinant human BMAL1/CLOCK heterodimer expressed in Escherichia coli interaction with FAM-labeled E-box DNA (unknown origin) assessed as reduction in fluorescence intensity upto 1000 uM.
The nature of data set [3]: Thiol reactivity of compound assessed as second order rate constant at 200 uM in presence of TCEP by Ellman's method. In kind it is ADME.
Data set [4] in a line: Inhibition of N-terminal (His)6/thioredoxin-tagged recombinant human BMAL1/CLOCK heterodimer expressed in Escherichia coli interaction with 5'-FAM-labeled Per2 E-box DNA (unknown origin) assessed as reduction in fluorescence intensity incubated for 40 mins by FP assay.
A short description of data set [5]: Inhibition of N-terminal (His)6/thioredoxin-tagged recombinant human BMAL1/CLOCK heterodimer expressed in Escherichia coli interaction with FAM-labeled E-box DNA (unknown origin) assessed as reduction in fluorescence intensity at 50 uM pretreated with iodoacetamide followed by compound treatment.
Data set [6] is described as follows: Inhibition of N-terminal (His)6/thioredoxin-tagged recombinant human BMAL1/CLOCK heterodimer expressed in Escherichia coli interaction with 5'-FAM-labeled Per2 E-box DNA (unknown origin) assessed as reduction in fluorescence intensity at 500 uM incubated for 40 mins by FP assay relative to control.

In the case of `O=C(CCl)NC1CCCCC1`, the inhibition entry in data set [1] is “inactive”. On to `NC(=O)CI` [IODOACETAMIDE], for which, in data set [2], the inhibition entry is “inactive”. Moreover, in data set [3], the K is listed as 15.9 10^-5/M/s. Regarding `O=C(CCl)Nc1ccccc1C(F)(F)F`, the K in data set [3] is 0.63 10^-5/M/s. Regarding `O=C(CCl)Nc1ccc(C(F)(F)F)cc1`, the inhibition entry in data set [2] was “inactive”. Also, in data set [3], the K is 4.47 10^-5/M/s. As for `C=CC(=O)Nc1cccc2ccccc12`, the inhibition entry in data set [1] is “inactive”. Consider `C=CC(=O)NCc1ccccc1Cl`, for which the inhibition entry in data set [1] was “inactive”. On the same count and under the same terms, the same measure for `O=C(CCl)NCc1ccccc1Cl`: “inactive”. On to `O=C(CCl)Nc1cccc(C(F)(F)F)c1`, for which the K in data set [3] is reported as 3.18 10^-5/M/s.

Consider `O=C(CCl)Nc1cccc2ccccc12`, for which the inhibition entry in data set [1] is “inactive”.

`O=C(CCl)Nc1ccccc1`: the inhibition result in data set [1] was “inactive”. For `C=CC(=O)Nc1cc(C(F)(F)F)cc(C(F)(F)F)c1`, the K in data set [3] is listed as 0.38 10^-5/M/s. In addition, the IC50 in data set [4] came to 500 µM. On to `O=C(CCl)Nc1cc(C(F)(F)F)cc(C(F)(F)F)c1`, for which the inhibition result in data set [2] is “Active”. Also, the inhibition result in data set [5] was “inactive”. For the same compound, the K in data set [3] is 4.61 10^-5/M/s. Also, the inhibition in data set [6] was 60%. Also, the IC50 in data set [4] was 150 µM. `CC(C)NC(=O)CCl`: in data set [1], the inhibition entry was “inactive”.

For the compound `C=CC(=O)NCc1ccc(Cl)cc1`, in data set [1], the inhibition entry was “inactive”. Consider `O=C1C=CC(=O)c2nccnc21`, for which, in data set [5], the inhibition entry is “inactive”. As for `O=C(CCl)NCc1ccc(Cl)cc1`, in data set [1], the inhibition entry was “inactive”. Turning to `C=CC(=O)NC(C)C`, in data set [1], the inhibition entry was “inactive”. Still for that read-out and setting: the same measure for `C=CC(=O)Nc1ccccc1`: “inactive”. Take `C=CC(=O)NC1CCCCC1`: the inhibition entry in data set [1] was “inactive”.

For the origin of these results see ChEMBL document CHEMBL5356969, “Functional evaluation of an electrophilic focused library to identify a covalent inhibitor against intrinsically disordered circadian clock transcription factors” (Bioorg Med Chem Lett, 2024).
